Reference: paper PMC6182184 (2018)

Test system: SRB-2 (RNA, aptamer) GGAACCUCGCUUCGGCGAUGAUGGAGAGGCGCAAGGUUAACCGCCUCAGGUUCC
Experiment: fluorescence titration
Settings: 125 mM KCl, 5 mM MgCl2, 20 mM Hepes pH 7.4, 25 °C, RNA titrated

Kd (10 nM probe)	Kd (50 nM probe)	Compound
	260 ± 21 nM	CCN(CC)c1ccc2nc3ccc(N(CC)CC)cc3[o+]c2c1
251 ± 50 nM		CCN(CC)c1ccc2cc3ccc(=[N+](CC)CC)cc-3oc2c1

Continued, molecule first:

Compound	Kd (10 nM probe)	Kd (50 nM probe)
CN(C)c1ccc2cc3ccc(N(C)C)cc3[o+]c2c1	59 ± 9 nM	
CN(C)c1ccc2cc3ccc(N(C)C)cc3nc2c1	88 ± 8 nM	
Nc1c2ccccc2nc2ccccc12		2960 ± 240 nM
